Measurements taken from patent publication US11111232B2, “Substituted cyclobutylpyridine and cyclobutylpyrimidine compounds as indoleamine 2,3-dioxygenase (IDO) inhibitors” (MERCK SHARP & DOHME CORP., priority 2017, dated 2021).

Target: IDO1 (Homo sapiens, UniProt P14902)
Test: IDO1 human whole blood assay
Format: cell-based
Design: Human whole blood was drawn in sodium heparin coated tubes from healthy internal donors; from tissue; host or cells: human whole blood from healthy donors, stimulated with LPS and IFNγ
Details: LPS and IFNγ 100 ng/mL, 18 h, kynurenine by LC/MS/MS
Experimental: IDO1Human Whole Blood Assay
Compounds to be tested were serially diluted in ten 3-fold steps in DMSO starting from 10 mM. […] LPS and IFNγ was prepared in RPMI to a 10× of final conc. (1000 ng/mL), final concentration is 100 ng/mL.
Human whole blood was drawn in sodium heparin coated tubes from healthy internal donors. […] of blood was transferred to each of the wells of a v-bottom 96 well plate. […] of compound was transferred from intermediate dilution plate, and incubated for 15 min. 30 μL from stimulants was then transferred to blood and mixed thoroughly. Plate was covered with breathable membrane and incubated at 37° C. for overnight (18 h).
On day 2 isotope labeled standard of kynurenine and tryptophan was made in water at 10× concentration and […] was added to the blood at […] final concentration. The assay plates were centrifuged at 300×G for 10 min with no brake to separate plasma from red blood cells. […] of plasma samples was removed without disturbing red blood cells. Plasma was diluted with RPMI in 1:1 ratio and proteins were precipitated out with two volume of Acetonitrile. The plates was centrifuged at 4000×G for 60 min. 20 mL of supernatant was carefully transferred to a 384 well plate contain 40 mL of 0.1% formic acid in water and analyzed by LC/MS/MS.
LC/MS/MS analyses were performed using Thermo Fisher's LX4-TSQ Quantum Ultra system. This system consists of four Agilent binary high-performance liquid chromatography (HPLC) pumps and a TSQ Quantum Ultra triple quadruple MS/MS instrument. For each sample, […] were injected onto an Atlantis T3 column (2.1 mm×150 mm, […]) from Waters. The mobile phase gradient pumped at 0.8 mL/min was used to elute the analytes from the column at 25° C. […] Mobile phase A consisted of 0.1% formic acid in water. Mobile phase B consisted of 0.1% of formic acid in acetonitrile. Data was acquired in positive mode using a HESI interface. The operational parameters for the TSQ Quantum Ultra instrument were a spray voltage of 4000 V, capillary temperature of 380° C., vaporizer temperature 400° C., shealth gas 60 arbitrary units, Aux gas 20 arbitrary units, tube lens 85 and collision gas 1.2 mTorr. […] The peak area was integrated by Xcalibur Quan software. The ratios between the kynurenine generated in the reaction and 2D6-Kynurenine spiked-in internal standard were used to generate percentage inhibition and IC50 values. Compounds were titrated and IC50′s were calculated by 4 parameter sigmoidal curve fitting formula.

Chain of IDO1 (P14902 whole entry): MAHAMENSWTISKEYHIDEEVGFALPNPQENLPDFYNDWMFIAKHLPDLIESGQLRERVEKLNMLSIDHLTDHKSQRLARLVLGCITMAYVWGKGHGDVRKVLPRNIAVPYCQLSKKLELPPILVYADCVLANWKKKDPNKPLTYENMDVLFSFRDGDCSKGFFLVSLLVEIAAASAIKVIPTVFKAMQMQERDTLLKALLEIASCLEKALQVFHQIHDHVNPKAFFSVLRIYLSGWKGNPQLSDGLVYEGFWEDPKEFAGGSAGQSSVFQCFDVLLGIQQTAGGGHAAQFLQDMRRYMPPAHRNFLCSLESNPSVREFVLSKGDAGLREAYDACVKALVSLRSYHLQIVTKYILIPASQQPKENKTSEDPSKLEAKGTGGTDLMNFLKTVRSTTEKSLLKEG

IC50: 2.01 µM
Structure (SMILES): O=C(Nc1ccc(C2(C(=O)Nc3ccc(F)cc3)CCC2)cn1)C1CCCCC1 [Example 15, N-(5-{1-[(4-fluorophenyl)carbamoyl]cyclobutyl}pyridin-2-yl) cyclohexanecarboxamide]
